The target of one experiment is T1, MMP-8 (Homo sapiens, UniProt P22894).
T1 construct: catalytic domain (Met80-Gly242) of human neutrophil collagenase; made in house
T1 sequence (P22894 100-262 limits assumed): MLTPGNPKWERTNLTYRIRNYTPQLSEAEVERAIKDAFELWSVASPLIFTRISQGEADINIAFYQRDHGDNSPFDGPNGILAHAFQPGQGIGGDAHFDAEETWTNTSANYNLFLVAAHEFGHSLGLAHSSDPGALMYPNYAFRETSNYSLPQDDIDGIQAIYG
The experiment can be described thus: Inhibition of MMPs (HNC catalytic domain), fluorogenic heptapeptide substrate DNP-Pro-Leu-Gly-Leu-Trp-Ala-D-Arg-NH2. In kind it is biochemical.
Conditions: not given
The method, then: In order to determine the inhibition of MMPs, for example HNC, the catalytic domain (isolation and purification see for example Schnierer, S., Kleine, T., Gote, T., Hillemann, A., Knäuper, V., Tschesche, H., Biochem. Biophys. Res. Commun. (1993) 191, 319-326) is incubated with inhibitors having various concentrations. Subsequently, the initial reaction rate in the conversion of a standard substrate is measured in a manner analogous to Grams F. et al., FEBS 335 (1993) 76-80).
The results are evaluated by plotting the reciprocal reaction rate against the concentration of the inhibitor. The inhibition constant (Ki) is obtained as the negative section of the abscissis by the graphical method according to Dixon, M., Biochem. J. (1953) 55, 170-202.
The synthetic collagenase substrate is a heptapeptide which is coupled, at the […], with DNP (dinitrophenol). Said DNP residue quenches by steric hindrance the fluorescence of the adjacent tryptophane of the heptapeptide. After cleavage of a tripeptide which includes the DNP group, the tryptophane fluorescence increases. The proteolytic cleavage of the substrate therefore can be measured by the fluorescence value.
The assay was performed at 25° C. in a freshly prepared 50 mM Tris buffer (pH 8.0) treated with dithiozone to remove traces of heavy metals. 4 mM CaCl2 was added and the buffer saturated wtih argon. Stock solutions of adamalysin II were prepared by centrifugation of the protein from an ammonium sulfate suspension and subsequent dissolution in the assay buffer. Stock solutions of collagenase were diluted with the assay buffer. Enzyme concentrations were determined by uv measurements (ε280=2.8 10^4 M1 cm^−1, ε288: 2.2 10^4 M^−1 cm^−1) and the stock solutions were stored in the cold. This solution was diluted 1:100 to obtain the final 16 nM assay concentration. The fluorogenic substrate DNP-ProLeu-Gly-LeuTrp-Ala-D-Arg-NH2 with a Km of 52 μM was used at a concentration of 21.4 μM; for the Ki determination a 12.8 μM concentration has also been used. Substrate fluorescence was measured at an excitation and emission wavelength of λ=320 and 420 nm, respectively, on a spectrofluorimeter (Perkin Elmer, Model 650-40) equipped with a thermostated cell holder. Substrate hydrolysis was monitored for 10 min. immediately after adding the enzyme. All reactions were performed at least in triplicate. The Ki values—of the inhibitors were calculated from the intersection point of the straight lines obtained by the plots of vo/vi vs. [concentration of inhibitor], whereas IC50 values were calculated from plots of vi/vo [concentration of inhibitor] by non-linear regression with simple robust weighting.
50 mM Tris/HCl pH 7.6 (Tris=Tris-(hydroxymethyl)-aminomethan)
100 mM NaCl/10 mM CaCl 2/5% MeOH (ff necessary)
Enzyme: 8 nM catalytic domain (Met80-Gly242) of human neutrophil collagenase
Substrate: 10 microM DNP-Pro-Leu-Gly-Leu-Trp-Ala-D-Arg-NH2
A solution of the enzyme and inhibitor in assay buffer (25° C.) was prepared. The reaction was started directly by giving the substrate into the solution. The cleavage of the flourogenic substrate was followed by flourescence spectroscopy with an excitation and emision wavelength of 280 and 350 nm, respectively. The IC50 value was calculated as the inhibitor concentration, which is necessary to decrease the velocity of the reaction to the half in comparison to the reaction without inhibitor.
In turn, `O=C1NC(=O)C(c2ccccc2)(N2CCN(c3ccc([N+](=O)[O-])cc3)CC2)C(=O)N1` [example 32.77, 5-[4-(4-Nitro-phenyl)-piperazin-1-yl)-5-phenyl-pyrimidine-2,4,6-trione] came in with an IC50 of 160 nM.

The molecule `O=C1NC(=O)C(c2ccccc2)(N(Cc2ccccc2)C(=O)Cc2cccc(Br)c2)C(=O)N1` [preferred no. 120, N-Benzyl-2-(3-bromo-phenyl)-N-(2,4,6-trioxo-5-phenyl-hexahydro-pyrimidin-5-yl)-acetamide] came in with an IC50 of 150 nM.

The same experiment, now with this note: MMP-8 (catalytic domain of human neutrophil collagenase), 25° C.; read-out: IC-50.
With `O=C1NC(=O)C(NC(=O)c2cccc3c2C(=O)c2ccccc2-3)(c2ccccc2)C(=O)N1` [example 32.74, 9-Oxo-9H-fluorene-1-carboxylic acid (2,4,6-trioxo-5-phenyl-hexadro-pyrimidin-5-yl)-amide], the IC50 amounted to 890 nM.

“5-Decyl-5-[N-(2-hydroxyethyl)piperazinyl]barbituric Acid [example 28]”: the IC50 turned out to be 320 nM.

For “5-[N-(2-Hydroxyethyl)piperazinyl]-5-(4-hydroxyphenyl)barbituric Acid [example 20]”, the IC50 worked out at 860 nM.

In the case of `CCCCCCCCC1(N2CCN(c3ccc([N+](=O)[O-])cc3)CC2)C(=O)NC(=O)NC1=O` [preferred no. 118], the IC50 stood at 60 nM.

In the case of “5-Octyl-5-[N-(2-hydroxyethyl)piperazinyl]barbituric Acid [example 23]”, the IC50 is 110 nM.

Regarding `O=C1NC(=O)C(c2ccc(-c3ccccc3)cc2)(N2CCN(c3ccc([N+](=O)[O-])cc3)CC2)C(=O)N1` [example 26, 5-(4′-Biphenyl)-5-[N-(4-nitrophenyl)piperazinyl]barbituric Acid], the IC50 was found to be 15 nM.

The record behind these values is US6472396B1, “Barbituric acid derivatives, processes for their production and pharmaceutical agents containing these compounds” (Roche Diagnostics GmbH, priority 1995, dated 2002).
